{"source": "patent US4672036A", "about": "“Pure cultures of Kibdelsporangium aridum Shearer gen. nov., sp. nov. ATCC 39323 and mutants thereof” (SmithKline Beckman Corporation, priority 1985, dated 1987)", "key": {"Strep. faecilis HH34358": {"system": "Strep. faecilis HH34358", "assay_type": "cell-based", "details": "Table A"}, "[1]": {"system": "Proteus mirabilis SK & F 444", "assay_type": "cell-based", "details": "Table A"}, "[2]": {"system": "E. coli 12140 (SK & F 809)", "assay_type": "cell-based", "details": "Table A"}, "[3]": {"system": "Kleb. pneumoniae 4200 (SK & F 798)", "assay_type": "cell-based", "details": "Table A"}, "[4]": {"system": "Pseudomonas aeruginosa HH63", "assay_type": "cell-based", "details": "Table A"}, "[5]": {"system": "Serratia marcesens ATCC 13880", "assay_type": "cell-based", "details": "Table A"}, "[6]": {"system": "Proteus morgani SK & F 179", "assay_type": "cell-based", "details": "Table A"}, "Providencia SK & F 276": {"system": "Providencia SK & F 276", "assay_type": "cell-based", "details": "Table A"}, "[7]": {"system": "Enterobacter cloacae HH31254", "assay_type": "cell-based", "details": "Table A"}, "[8]": {"system": "Listeria monocytogenes SK & F 2255", "assay_type": "cell-based", "details": "Table A"}, "[9]": {"system": "Staph. aureus SK & F 2613", "assay_type": "cell-based", "details": "Table B, Methicillin Sensitive"}, "[10]": {"system": "Bacteroides fragilis ATCC 25285", "assay_type": "cell-based", "details": "Table D, Anaerobes"}, "B. fragilis H145": {"system": "B. fragilis H145", "assay_type": "cell-based, Bacteroides fragilis", "details": "Table D, Anaerobes"}, "B. fragilis SK & F 3060": {"system": "B. fragilis SK & F 3060", "assay_type": "cell-based, Bacteroides fragilis", "details": "Table D, Anaerobes"}, "B. loeochii SK & F 3087": {"system": "B. loeochii SK & F 3087", "assay_type": "cell-based", "details": "Table D, Anaerobes"}, "[11]": {"system": "B. thetaiotamicron SK & F 3089", "assay_type": "cell-based", "details": "Table D, Anaerobes"}, "[12]": {"system": "Fusobacterium nucleatum ATCC 25586", "assay_type": "cell-based", "details": "Table D, Anaerobes"}, "Swine in vitro model": {"system": "Swine in vitro model", "assay": "swine in vitro model (growth promotant activity)"}, "rumen in vitro model [13]": {"system": "rumen in vitro model", "assay": "rumen in vitro model (growth promotant activity); further: test concentration or dose not given here", "parameters": "species or system steer", "procedure": "The protocol for the rumen in vitro model is analogous to the protocol for the swine in vitro model with the following modifications:\n(1) A 400 kg steer is surgically prepared with a rumen cannula.\n(2) The animal is fed one time a day with the following ration:\n(3) Manipulation of VFA production is described as the production ratio of propionate as a percentage of total VFA produced.\n(4) Sampling of the material, via the cannula, is at 120 minutes post feeding."}, "solubility": {"assay": "solubility", "assay_type": "physicochemical"}, "[14]": {"system": "Salmonella gallinarum BC595", "details": "Table A"}, "[15]": {"system": "Clostridium perfringens MCP-1", "details": "Table D, Anaerobes"}, "C. perfringens MCP-2": {"system": "C. perfringens MCP-2", "details": "Table D, Anaerobes"}, "[16]": {"system": "C. perfringens ATCC 19408", "details": "Table D, Anaerobes"}, "rumen in vitro model [17]": {"system": "rumen in vitro model", "assay": "rumen in vitro model (growth promotant activity)", "parameters": "species or system steer", "remark": "listed apart in the source"}}, "note": "Several values for one entry are separate records, joined by “and”; a condition that tells them apart may be missing. Equal values may be shown once.", "data": [{"smiles": "CN[C@H]1C(=O)N[C@H]2C(=O)N[C@H](C(=O)N[C@H]3C(=O)N[C@H]4C(=O)N[C@H](C(=O)N[C@H](C(=O)O)c5cc(O)cc(O[C@H]6O[C@H](CO)[C@@H](O)[C@H](O)[C@@H]6O)c5-c5cc4ccc5O)[C@H](O)c4cc(Cl)c(c(Cl)c4)Oc4cc3cc(c4O[C@@H]3O[C@H](C(=O)O)[C@@H](O)[C@H](O)[C@H]3NC(=O)CCCCCCCC(C)C)Oc3ccc(cc3Cl)[C@H]2O)c2cc(cc(O)c2Cl)Oc2cc1ccc2O", "note": "[AAD 216B]", "values": [{"measurement": "MIC", "setting": "Strep. faecilis HH34358", "result": 0.4, "unit": "µg/mL"}, {"measurement": "MIC", "setting": "[1]", "result": "> 100", "unit": "µg/mL"}, {"measurement": "MIC", "setting": "[2]", "result": "> 100", "unit": "µg/mL"}, {"measurement": "MIC", "setting": "[3]", "result": "> 100", "unit": "µg/mL"}, {"measurement": "MIC", "setting": "[4]", "result": "> 100", "unit": "µg/mL"}, {"measurement": "MIC", "setting": "[5]", "result": "> 100", "unit": "µg/mL"}, {"measurement": "MIC", "setting": "[6]", "result": "> 100", "unit": "µg/mL"}, {"measurement": "MIC", "setting": "Providencia SK & F 276", "result": "> 100", "unit": "µg/mL"}, {"measurement": "MIC", "setting": "[7]", "result": "> 100", "unit": "µg/mL"}, {"measurement": "MIC", "setting": "[8]", "result": 0.4, "unit": "µg/mL"}, {"measurement": "MIC", "setting": "[9]", "result": 1.6, "unit": "µg/mL"}, {"measurement": "MIC", "setting": "[10]", "result": 32, "unit": "µg/mL"}, {"measurement": "MIC", "setting": "B. fragilis H145", "result": 16, "unit": "µg/mL"}, {"measurement": "MIC", "setting": "B. fragilis SK & F 3060", "result": 16, "unit": "µg/mL"}, {"measurement": "MIC", "setting": "B. loeochii SK & F 3087", "result": 16, "unit": "µg/mL"}, {"measurement": "MIC", "setting": "[11]", "result": 32, "unit": "µg/mL"}, {"measurement": "MIC", "setting": "[12]", "result": 32, "unit": "µg/mL"}, {"measurement": "GLU (glucose)", "setting": "Swine in vitro model", "result": "190 % Control and 184 % Control and 97 % Control"}, {"measurement": "LYS (lysine)", "setting": "Swine in vitro model", "result": "50 % Control and 55 % Control"}, {"measurement": "VFA (total of volatile fatty acids)", "setting": "rumen in vitro model [13]", "result": "111 % Control and 121 % Control"}, {"measurement": "solubility", "setting": "solubility; H2O, methanol, dimethylsulfoxide, dimethylformamide", "result": "soluble"}, {"measurement": "solubility", "setting": "solubility; ethanol, acetonitrile, acetone, diethylether, aliphatic hydrocarbons", "result": "insoluble"}, {"measurement": "MIC", "setting": "[14]", "result": "> 100", "unit": "µg/mL"}, {"measurement": "MIC", "setting": "[15]", "result": 0.125, "unit": "µg/mL"}, {"measurement": "MIC", "setting": "C. perfringens MCP-2", "result": 0.125, "unit": "µg/mL"}, {"measurement": "MIC", "setting": "[16]", "result": 0.125, "unit": "µg/mL"}, {"measurement": "LYS (lysine)", "setting": "rumen in vitro model [17]", "result": "124 % Control and 107 % Control and 103 % Control"}]}]}
